This note sets out measurements from PubChem BioAssay AID1645848.

For this data set the following is noted: buffer; pH 7.4; 6.0 h; 150.0 µM.

≈ marks a conversion by molar mass, not a printed value. Where only a bound is given, the exact number is not on record here.

`CCOc1ccc(N2C(=O)c3n[nH]c(-c4cccs4)c3C2c2cccc(F)c2)cc1` (stereo unspecified): the kinetic solubility (in general, solubility judged after dilution from a stock solution rather than from solid) was under 1 µg/mL.

For `Cc1ccccc1C(=O)N1CCc2cc(-c3nc(NC(=O)CC4CCCCC4)sc3C)ccc21`, the kinetic solubility is under 1 µg/mL.

The compound `NC(=O)C1CCN(c2nc(-c3ccc4c(c3)CCO4)cs2)CC1` came in with a solubility (kinetic) of over 49 µg/mL.

In turn, `COc1ccc(OC)c(CN2CCNc3cc(Nc4ccccc4)ncc3C2)c1` showed a kinetic solubility of over 86 µg/mL.

Compound `O=C(NCCCc1ccccc1)C1CCN(c2nc(-c3ccc(Br)cc3)cs2)CC1` registered a kinetic solubility of 3.28 µg/mL (≈ 6.77 µM).

For `CCN1C(=O)c2ccccc2S(=O)c2ccc(NC(=O)Cc3ccc(OC)cc3)cc21` (stereo unspecified), the solubility (kinetic) came to 6.41 µg/mL (≈ 14.7 µM).

`COc1cncc(Nc2ncc(-c3cccc(N(C)C)c3)c3c2OCC3)c1` registered a kinetic solubility of under 1 µg/mL.

Regarding `Cc1ccc(C(=O)Nc2nc3nc(-c4ccccc4)cc(=O)n3[nH]2)cc1`, the solubility (kinetic) was found to be 2.64 µg/mL (≈ 7.65 µM).

For `CC[C@H](Nc1ncnc2nc[nH]c12)c1nc2cccc(F)c2c(=O)n1-c1ccccc1`, the kinetic solubility was over 61 µg/mL.

In the case of `Cc1ccc2c(c1)[nH]c1c(N3CCN(Cc4ccccc4)CC3)ncnc12`, the solubility (kinetic) was under 1 µg/mL.

The compound `CCc1cccc(NC(=O)c2cc(-c3ccc[nH]3)n[nH]2)c1` displayed a solubility (kinetic) of 4.59 µg/mL (≈ 16.4 µM).

The compound `NC(=O)C1CCN(c2nccc(-c3ccc(Br)cc3)n2)CC1` registered a solubility (kinetic) of 5.39 µg/mL (≈ 14.9 µM).

In the case of `CCOc1ccc(CNC(=O)CCCn2nc(C)c3c(C)n(-c4ccc(C)cc4)nc3c2=O)cc1`, the kinetic solubility was 1.48 µg/mL (≈ 3.12 µM).

For `Cc1c(-c2cccc3c(CCCOc4cccc5ccccc45)c(C(=O)O)n(Cc4cccnc4)c23)c(COc2ccc(N3CCN([S+](=O)([O-])N(C)C)CC3)cc2)nn1C`, the kinetic solubility is under 1 µg/mL.

`CN(C)CC(=O)NC1CCCc2c1cnn2-c1ccc(F)cc1F` (stereo unspecified): the solubility (kinetic) was over 33 µg/mL.

As for `Nc1ncccc1-c1nc2ccc(-c3ccccc3)nc2n1-c1ccc(C2(N)CCC2)cc1`, the solubility (kinetic) was over 64 µg/mL.

`CC(C)NC(=O)N1C[C@@H]2C[C@H](C1)c1ccc(-c3cccc(C(F)(F)F)c3)c(=O)n1C2` came in with a solubility (kinetic) of over 93 µg/mL.

With `NC(=O)C1CCN(c2nc(-c3ccc(C(F)(F)F)cc3)cs2)CC1`, the kinetic solubility came to 1.98 µg/mL (≈ 5.56 µM).

In turn, `CC(C)=CCNc1ncnc2nc[nH]c12` came in with a kinetic solubility of over 30 µg/mL.

For `CN1Cc2c(cc(N3CCOCC3)nc2-c2ccccc2OC(F)(F)F)C1=O`, the solubility (kinetic) amounted to 12.1 µg/mL (≈ 30.8 µM).

`COc1cccc(CN2CCNc3cc(Nc4ccccc4)ncc3C2)c1`: the solubility (kinetic) is 49.9 µg/mL (≈ 139 µM).

`Fc1ccc(-c2ccc(Nc3nc(-c4ccncc4)nc4ccccc34)cc2F)c(F)c1` came in with a kinetic solubility of under 1 µg/mL.

`Cc1cccc(CS(=O)(=O)c2ncc(Cl)c(C(=O)Nc3nc4ccc(F)cc4s3)n2)c1` displayed a solubility (kinetic) of under 1 µg/mL.

With `O=C(CCS(=O)(=O)c1nc(-c2cccs2)cc(C(F)(F)F)n1)Nc1ccc(OC(F)(F)F)cc1`, the solubility (kinetic) amounted to 11.5 µg/mL (≈ 21.8 µM).

The compound `COc1cc(NS(=O)(=O)c2ccc(C)cc2)cc(C(=O)Nc2nc(-c3ccccc3)cs2)c1` had a kinetic solubility of under 1 µg/mL.

`Cc1ccc2nc(-c3cc(NC(=O)c4ccc5c(c4)OCCO5)ccc3Cl)oc2c1`: the kinetic solubility is under 1 µg/mL.

Regarding `FC(F)(F)c1ccc(N2CCN(C(=S)Nc3ccccn3)CC2)cc1`, the solubility (kinetic) was 8.21 µg/mL (≈ 22.4 µM).

Turning to `CN(C)c1cccc(-c2ccnc(N3CCC(C(N)=O)CC3)n2)c1`, the kinetic solubility came to 39.1 µg/mL (≈ 120 µM).

Compound `O=C(c1cnn(-c2cccc(F)c2)c1-n1cccc1)N1CCN(c2ccccc2F)CC1` registered a solubility (kinetic) of 1.11 µg/mL (≈ 2.56 µM).

`Cc1noc(C)c1C(=O)N1CCC2(CC1)CCN(C(c1ccccc1)c1ccccc1)CC2` gave a kinetic solubility of 22 µg/mL (≈ 49.5 µM).

`Fc1ccc(-c2ccc(Nc3nc(-c4ccncc4)nc4ccccc34)cc2F)cc1` came in with a solubility (kinetic) of under 1 µg/mL.

Take `O=C(Nc1ncc(Cc2ccc(C(F)(F)F)cc2)s1)c1cnc(-c2ccccc2)[nH]1`: the solubility (kinetic) is under 1 µg/mL.

`O=C(Nc1ccc(S(=O)(=O)Nc2nccs2)cc1)c1ccnc2ccccc12` registered a solubility (kinetic) of 2.55 µg/mL (≈ 6.2 µM).

Compound `Nc1ncnc2c1ncn2[C@H]1O[C@@H](CO)[C@@H](O)[C@H]1N` returned a solubility (kinetic) of over 39 µg/mL.

`Cc1nn2c(c1-c1ccccc1Oc1ccccc1)N(Cc1ccccc1O)CCC2`: the solubility (kinetic) was 13.9 µg/mL (≈ 33.8 µM).

As to `Cc1cc(N=Nc2ccc(S(=O)(=O)Nc3ccccn3)cc2)c(N)cc1O`, the kinetic solubility turned out to be 3.69 µg/mL (≈ 9.63 µM).

Compound `O=C(C1CC(=O)N(c2n[nH]c3ccccc23)C1)N1CCC(c2noc3cc(F)ccc23)CC1` (stereo unspecified) showed a solubility (kinetic) of 2.36 µg/mL (≈ 5.28 µM).

In turn, `O=C(Nc1ncc(Cc2ccc(C(F)(F)F)cc2)s1)c1ccc(-c2ccccc2)o1` registered a solubility (kinetic) of under 1 µg/mL.

With `COc1ccnc(NC(=S)N2CCN(c3ncc(C(F)(F)F)cc3Cl)CC2)c1`, the kinetic solubility came out at 1.24 µg/mL (≈ 2.86 µM).

For `O=S(=O)(Nc1cccc2ccccc12)c1ccc(NCc2ccc(Br)cc2O)cc1`, the kinetic solubility was under 1 µg/mL.

`COc1c(O)cc2c(c1OC)-c1ccc(SC)c(=O)cc1C(NC(C)=O)CC2` (stereo unspecified) returned a solubility (kinetic) of over 59 µg/mL.

As for `COc1cc(-c2cc3c(nc2-c2ccccc2)nc(C(=O)NC2CCN(C)CC2)n3C)ccn1`, the solubility (kinetic) is over 67 µg/mL.

For the compound `O=C(Nc1ncc(Cc2ccc(C(F)(F)F)cc2)s1)c1cccc(-c2ccccc2)c1`, the solubility (kinetic) is under 1 µg/mL.

Take `COc1cccc(-c2nc3cc(NC(=O)c4ccc(C)c([N+](=O)[O-])c4)ccc3o2)c1`: the solubility (kinetic) is under 1 µg/mL.

As for `COc1cccc(NS(=O)(=O)c2ccc(C)cc2)c1C(=O)Nc1nc(-c2ccccc2)cs1`, the solubility (kinetic) is under 1 µg/mL.

As for `Nc1ccc(S(=O)(=O)Nc2cnccc2C(=O)Nc2nc(-c3ccccc3)cs2)cc1`, the kinetic solubility is 43.2 µg/mL (≈ 95.7 µM).

For the compound `Cc1ccccc1C(=O)NC1CCN(c2ccc3nnc(C4CC4)n3n2)CC1`, the solubility (kinetic) is over 56 µg/mL.

`Cc1ccc2oc3c(c(=O)c2c1)C(c1cccc(O)c1)N(CCCN1CCOCC1)C3=O` (stereo unspecified): the solubility (kinetic) was over 64 µg/mL.

Compound `Brc1ccccc1-c1nc(NCc2ccc(-c3cccnc3)cc2)c2ccccc2n1` yielded a kinetic solubility of under 1 µg/mL.

`CC(C)(C)c1ccc(S(=O)(=O)c2cnc(SCC(=O)Nc3ccc(F)c(Cl)c3)[nH]c2=O)cc1` returned a solubility (kinetic) of 58.4 µg/mL (≈ 114 µM).

Regarding `Cc1cc(C)nc(NC(=S)N2CCN(c3cccc(OC(F)F)c3)CC2)c1`, the kinetic solubility stood at 11.6 µg/mL (≈ 29.4 µM).

The compound `Fc1ccc(Cl)cc1-c1nc(Nc2ccncc2)c2nccnc2n1` came in with a kinetic solubility of 1.6 µg/mL (≈ 4.54 µM).

Compound `O=C(Nc1nc(-c2ccccc2)cs1)c1ccncc1NS(=O)(=O)c1ccc2ccccc2c1` yielded a solubility (kinetic) of under 1 µg/mL.

Consider `CCc1c(C)nc2c(-c3cnn(-c4cc(CO)ccn4)c3)c[nH]n2c1=O`, for which the solubility (kinetic) is 10.1 µg/mL (≈ 28.7 µM).

Regarding `CC(=O)NC1CCN(c2nc(-c3ccc(Br)cc3)cs2)CC1`, the solubility (kinetic) was 5.01 µg/mL (≈ 13.2 µM).

`COc1ccccc1-c1nnc2sc(-c3ccc(N(C)C)cc3)nn12` had a solubility (kinetic) of 1.04 µg/mL (≈ 2.96 µM).

Compound `COc1c2c(c3c(c1CCC(=O)O)OC(C)(C)C=C3)OC(C)(C)C=C2` had a solubility (kinetic) of over 51 µg/mL.

Compound `O=C(NC1CCCc2c1cnn2-c1ccc(F)cc1F)c1ccc(C2(C(F)(F)F)N=N2)cc1` (stereo unspecified) had a kinetic solubility of under 1 µg/mL.

Compound `O=C(Nc1ccc(Cl)cc1Cl)c1cnc2ccccc2n1` yielded a kinetic solubility of under 1 µg/mL.

In turn, `COc1ccc(Cn2c(C(=O)O)c(CNCc3ccco3)c3ccc(C)cc32)cc1` came in with a solubility (kinetic) of over 60 µg/mL.

The compound `CNc1oc(-c2cccc(Cl)c2Cl)nc1C#N` had a solubility (kinetic) of under 1 µg/mL.

The compound `O=C(Nc1ccc(Oc2ccnc3[nH]ccc23)c(F)c1)c1cccn(-c2ccc(F)cc2)c1=O` displayed a kinetic solubility of under 1 µg/mL.

Take `O=C(O)c1ccnc2cc(C(OCCN3CCCCC3)c3ccccc3Cl)[nH]c12` (stereo unspecified): the kinetic solubility is over 61 µg/mL.

The compound `Cc1ccc(-c2cc(C(=O)Nc3ccc(S(N)(=O)=O)cc3)c3cccc(C)c3n2)cc1C` yielded a kinetic solubility of under 1 µg/mL.

Compound `C[C@H]1[C@@H](CCC(=O)Nc2ccc(F)cc2)O[C@@H]2O[C@]3(C)CC[C@@H]4[C@H](C)CC[C@@H]1[C@@]24OO3` returned a kinetic solubility of 24 µg/mL (≈ 55.3 µM).

The compound `Nc1ccccc1CNc1ccc(S(=O)(=O)Nc2nccs2)cc1` gave a kinetic solubility of over 53 µg/mL.

As for `Cc1cc(NS(=O)(=O)c2ccc(NC(=O)Cc3ccc(Cl)c(F)c3)cc2)no1`, the solubility (kinetic) was over 63 µg/mL.

The compound `Nc1c(-c2ccccc2)cc[nH]c1=O` had a solubility (kinetic) of 12.9 µg/mL (≈ 69.1 µM).

The compound `O=C(Cc1ccccc1)Nc1ccc(S(=O)(=O)Nc2nccs2)cc1` showed a solubility (kinetic) of over 55 µg/mL.

Compound `CC(C)Oc1ccccc1C(=O)Nc1nc(-c2ccccc2)cs1` registered a kinetic solubility of under 1 µg/mL.

With `Cc1cccc(-n2cnc3cc(C(=O)N4CCC(Br)CC4)ccc32)c1`, the kinetic solubility was 35.2 µg/mL (≈ 88.3 µM).

In the case of `OCCOCCN1CCN(C(c2ccccc2)c2ccc(Cl)cc2)CC1` (stereo unspecified), the solubility (kinetic) is over 55 µg/mL.

For `O=[S+]([O-])(Nc1ccc(N2CCNCC2)cc1)c1ccc(NCc2ccc(Cl)cc2O)cc1`, the kinetic solubility turned out to be 25.2 µg/mL (≈ 53.3 µM).

For `COc1ccc(C2c3c(ncn(CCN4CCOCC4)c3=N)Oc3ccc4ccccc4c32)cc1OC` (stereo unspecified), the solubility (kinetic) came to 4.21 µg/mL (≈ 8.44 µM).

The compound `CCc1nnc(NC(=O)c2nc(S(=O)(=O)Cc3ccc(C)cc3)ncc2Cl)s1` yielded a solubility (kinetic) of over 65 µg/mL.

Consider `COc1cccc(CNc2ccc(S(=O)(=O)Nc3cccc(-c4ccccc4)c3)cc2)c1O`, for which the solubility (kinetic) is under 1 µg/mL.

Regarding `CN(C(=O)OC(C)(C)C)[C@@H](Cc1ccc(O[S+](=O)([O-])c2cccc3cnccc23)cc1)C(=O)N1CCN(C(=O)OCc2ccccc2)CC1`, the kinetic solubility is under 1 µg/mL.

In turn, `Cc1cc(C)nc(NC(=S)N2CCN(c3ccc(Cl)cc3F)CC2)c1` had a kinetic solubility of 3.36 µg/mL (≈ 8.88 µM).

On to `CCc1ccc(-n2c(=O)c3cccnc3n2CC(=O)Nc2cc(OC)ccc2OC)cc1`, for which the kinetic solubility is under 1 µg/mL.

`COc1ccc(-n2nc(C3CCCN(CC4CCCCC4)C3)[nH]c2=O)cc1` (stereo unspecified) yielded a solubility (kinetic) of over 37 µg/mL.

For the compound `CC(C)(C)C1CCc2nc(NC(=O)c3cccc(Cl)c3)sc2C1` (stereo unspecified), the kinetic solubility is under 1 µg/mL.

Take `C#CCOc1ccc(-c2nnc(Nc3ccc(NC(C)=O)cc3)c3ccccc23)cc1`: the kinetic solubility is under 1 µg/mL.

`Cc1sc(NC(=O)Cc2ccc3c(c2)OCO3)nc1-c1ccc2c(c1)CCN2C(=O)c1ccccc1Cl` registered a solubility (kinetic) of under 1 µg/mL.

Consider `Cc1ccc(-c2cc(C(=O)Nc3ccc(-n4cncn4)cc3)c3ccccc3n2)cc1C`, for which the kinetic solubility was under 1 µg/mL.

Take `Cc1ccc(N2CCC(CNc3nc(-c4ccccc4C(C)C)ncc3F)CC2)cn1`: the solubility (kinetic) amounted to 7.65 µg/mL (≈ 18.2 µM).

As to `Cc1ccc(S(=O)(=O)Nc2ccccc2C(=O)Nc2nc(-c3ccccc3)c(Br)s2)cc1`, the solubility (kinetic) is under 1 µg/mL.
